In ChEMBL document CHEMBL1130221, “Constrained corticotropin-releasing factor antagonists with i-(i + 3) Glu-Lys bridges” (1997):

What was measured:
Rattus norvegicus [1] = species on record: Rattus norvegicus; test: The percent intrinsic activity, determined by level of antagonist induced secretion; assay type: functional
Rattus norvegicus [2] = species on record: Rattus norvegicus; test: In vitro relative potency versus [DPhe12,Nle21,38]-hCRF(12-41), using rat pituitary culture assay; assay type: functional

SMILES	IA (Rattus norvegicus [1]) [%]	Relative potency (Rattus norvegicus [2])
CCCC[C@H](NC(=O)[C@H](CCC(=O)O)NC(=O)[C@H](CC(C)C)NC(=O)[C@@H](NC(=O)[C@H](CCC(=O)O)NC(=O)[C@H](CCCN=C(N)N)NC(=O)[C@H](CC(C)C)NC(=O)[C@@H]1CCCCNC(=O)CC[C@H](NC(=O)[C@H](CC(C)C)NC(=O)[C@@H](N)CC(=O)O)C(=O)N[C@H](Cc2ccccc2)C(=O)N[C@@H](Cc2c[nH]cn2)C(=O)N1)C(C)C)C(=O)N[C@@H](C)C(=O)N[C@@H](CCCN=C(N)N)C(=O)N[C@@H](C)C(=O)N[C@@H](CCC(=O)O)C(=O)N[C@@H](CCC(N)=O)C(=O)N[C@@H](CC(C)C)C(=O)N[C@@H](C)C(=O)N[C@@H](CCC(N)=O)C(=O)N[C@@H](CCC(N)=O)C(=O)N[C@@H](C)C(=O)N[C@@H](Cc1c[nH]cn1)C(=O)N[C@@H](CO)C(=O)N[C@@H](CC(N)=O)C(=O)N[C@@H](CCCN=C(N)N)C(=O)N[C@@H](CCCCN)C(=O)N[C@@H](CC(C)C)C(=O)N[C@@H](CCCC)C(=O)N[C@@H](CCC(=O)O)C(=O)N[C@H](C(=O)N[C@H](C(N)=O)[C@@H](C)CC)[C@@H](C)CC	29	0.005
CCCC[C@H](NC(=O)[C@H](CCC(=O)O)NC(=O)[C@H](CC(C)C)NC(=O)[C@@H](NC(=O)[C@H](CCC(=O)O)NC(=O)[C@H](CCCN=C(N)N)NC(=O)[C@H](CC(C)C)NC(=O)[C@H](CC(C)C)NC(=O)[C@@H]1CCCCNC(=O)CC[C@H](NC(=O)[C@@H](N)CC(=O)O)C(=O)N[C@@H]([C@@H](C)O)C(=O)N[C@H](Cc2ccccc2)C(=O)N1)C(C)C)C(=O)N[C@@H](C)C(=O)N[C@@H](CCCN=C(N)N)C(=O)N[C@@H](C)C(=O)N[C@@H](CCC(=O)O)C(=O)N[C@@H](CCC(N)=O)C(=O)N[C@@H](CC(C)C)C(=O)N[C@@H](C)C(=O)N[C@@H](CCC(N)=O)C(=O)N[C@@H](CCC(N)=O)C(=O)N[C@@H](C)C(=O)N[C@@H](Cc1c[nH]cn1)C(=O)N[C@@H](CO)C(=O)N[C@@H](CC(N)=O)C(=O)N[C@@H](CCCN=C(N)N)C(=O)N[C@@H](CCCCN)C(=O)N[C@@H](CC(C)C)C(=O)N[C@@H](CCCC)C(=O)N[C@@H](CCC(=O)O)C(=O)N[C@H](C(=O)N[C@H](C(N)=O)[C@@H](C)CC)[C@@H](C)CC	27	0.27
